According to patent US20250171438A1 (Agios Pharmaceuticals, Inc., priority 2022, published 2025):

molecular target: T1, human PAH with the R408W mutation (Homo sapiens, UniProt P00439, R408W); experiment: Cell Based Phenylalanine Flux Assay; conditions: A375 cells expressing human R408W PAH; 24 hrs compound incubation; 13C-Tyrosine by LC-MS; average where tested multiple times; read-out: AC50
T1 construct: expressed in transfected cells
T1 sequence (P00439 1-452 R408W): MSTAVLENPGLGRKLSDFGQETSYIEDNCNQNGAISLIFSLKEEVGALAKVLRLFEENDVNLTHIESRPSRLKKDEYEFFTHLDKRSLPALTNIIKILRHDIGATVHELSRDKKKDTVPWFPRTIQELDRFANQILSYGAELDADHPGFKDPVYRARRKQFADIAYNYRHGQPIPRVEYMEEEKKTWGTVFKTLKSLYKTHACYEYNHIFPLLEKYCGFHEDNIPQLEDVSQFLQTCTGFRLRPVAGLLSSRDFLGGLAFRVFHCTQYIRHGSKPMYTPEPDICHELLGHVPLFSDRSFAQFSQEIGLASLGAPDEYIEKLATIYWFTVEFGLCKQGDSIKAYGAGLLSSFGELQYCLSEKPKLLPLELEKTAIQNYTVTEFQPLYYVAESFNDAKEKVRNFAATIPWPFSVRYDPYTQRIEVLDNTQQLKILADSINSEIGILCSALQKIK

Row | AC50 [nM] | SMILES
1 | 1000 to 5000 | O=C(c1nnc(-c2ccc(C(F)(F)F)cn2)o1)N1CCc2[nH]cnc2[C@@H]1c1nc2c(F)cccc2s1 [Example 1847, (R)-(4-(4-fluorobenzo[d]thiazol-2-yl)-6,7-dihydro-1H-imidazo[4,5-c]pyridin-5(4H)-yl)(5-(5-(trifluoromethyl)pyridin-2-yl)-1,3,4-oxadiazol-2-yl)methanone]
2 | 1000 to 5000 | O=C(c1nnc(-c2ccc(C(F)(F)F)cn2)o1)N1CCc2[nH]cnc2[C@H]1c1nc2c(F)cccc2s1 [Example 1848, (S)-(4-(4-fluorobenzo[d]thiazol-2-yl)-6,7-dihydro-1H-imidazo[4,5-c]pyridin-5(4H)-yl)(5-(5-(trifluoromethyl)pyridin-2-yl)-1,3,4-oxadiazol-2-yl)methanone]
3 | 1000 to 5000 | O=C(c1oc(-c2ccccn2)nc1Br)N1CCc2[nH]cnc2[C@@H]1c1nc2ccccc2s1 [Example 1849, (R)-(4-(benzo[d]thiazol-2-yl)-6,7-dihydro-1H-imidazo[4,5-c]pyridin-5(4H)-yl)(4-bromo-2-(pyridin-2-yl)oxazol-5-yl)methanone]
4 | < 500 | O=C(c1oc(-c2ccccn2)nc1Br)N1CCc2[nH]cnc2[C@H]1c1nc2ccccc2s1 [Example 1850]
5 | < 500 | CC1(c2nc(C(F)F)c(C(=O)N3CCc4[nH]cnc4[C@H]3c3nc4ccccc4s3)o2)CC1 [Example 1851]
6 | < 500 | CC1(c2nc(C(F)F)c(C(=O)N3CCc4[nH]cnc4[C@@H]3c3nc4ccccc4s3)o2)CC1 [Example 1852, (R)-(4-(benzo[d]thiazol-2-yl)-6,7-dihydro-1H-imidazo[4,5-c]pyridin-5(4H)-yl)(4-(difluoromethyl)-2-(1-methylcyclopropyl)oxazol-5-yl)methanone]
7 | 1000 to 5000 | Cn1nc(C2CCC2)cc1C(=O)N1CCc2[nH]cnc2[C@H]1c1nc2c(F)cccc2s1 [Example 1853]
8 | 1000 to 5000 | Cn1nc(C2CCC2)cc1C(=O)N1CCc2[nH]cnc2[C@@H]1c1nc2c(F)cccc2s1 [Example 1854, (R)-(3-cyclobutyl-1-methyl-1H-pyrazol-5-yl)(4-(4-fluorobenzo[d]thiazol-2-yl)-6,7-dihydro-1H-imidazo[4,5-c]pyridin-5(4H)-yl)methanone]
9 | < 500 | O=C(c1ccnn1-c1ccccn1)N1CCc2[nH]cnc2[C@H]1c1nc2ccccc2s1 [Example 1855]
10 | < 500 | O=C(c1cn[nH]c1C(F)F)N1CCc2[nH]cnc2[C@H]1c1nc2ccccc2s1 [Example 1857]
11 | 1000 to 5000 | O=C(c1cn[nH]c1C(F)F)N1CCc2[nH]cnc2[C@@H]1c1nc2ccccc2s1 [Example 1858, (R)-(4-(benzo[d]thiazol-2-yl)-6,7-dihydro-1H-imidazo[4,5-c]pyridin-5(4H)-yl)(5-(difluoromethyl)-1H-pyrazol-4-yl)methanone]
12 | < 500 | O=C(c1cn[nH]c1C(F)F)N1CCc2[nH]cnc2[C@H]1c1nc2c(F)cccc2s1 [Example 1859]
13 | 1000 to 5000 | O=C(c1cn[nH]c1C(F)F)N1CCc2[nH]cnc2[C@@H]1c1nc2c(F)cccc2s1 [Example 1860, (R)-(5-(difluoromethyl)-1H-pyrazol-4-yl)(4-(4-fluorobenzo[d]thiazol-2-yl)-6,7-dihydro-1H-imidazo[4,5-c]pyridin-5(4H)-yl)methanone]
14 | 1000 to 5000 | O=C(c1cn[nH]c1Cl)N1CCc2[nH]cnc2[C@@H]1c1nc2c(F)cccc2s1 [Example 1861, (R)-(5-chloro-1H-pyrazol-4-yl)(4-(4-fluorobenzo[d]thiazol-2-yl)-6,7-dihydro-1H-imidazo[4,5-c]pyridin-5(4H)-yl)methanone]
15 | 500 to 1000 | O=C(c1cn[nH]c1Cl)N1CCc2[nH]cnc2[C@H]1c1nc2c(F)cccc2s1 [Example 1862]
16 | 500 to 1000 | O=C(c1nnc(-c2cn[nH]c2)o1)N1CCc2[nH]cnc2[C@H]1c1nc2c(F)cccc2s1 [Example 1863]
17 | 1000 to 5000 | O=C(c1nnc(-c2cn[nH]c2)o1)N1CCc2[nH]cnc2[C@@H]1c1nc2c(F)cccc2s1 [Example 1864, (R)-(5-(1H-pyrazol-4-yl)-1,3,4-oxadiazol-2-yl)(4-(4-fluorobenzo[d]thiazol-2-yl)-6,7-dihydro-1H-imidazo[4,5-c]pyridin-5(4H)-yl)methanone]

Row | AC50 [nM] | SMILES
18 | > 5000 | COCc1ccc2c(C(=O)N3CCc4[nH]cnc4[C@@H]3c3nc4ccccc4s3)c(C#N)nn2c1 [Example 1865, (R)-3-(4-(benzo[d]thiazol-2-yl)-4,5,6,7-tetrahydro-1H-imidazo[4,5-c]pyridine-5-carbonyl)-6-(methoxymethyl)pyrazolo[1,5-a]pyridine-2-carbonitrile]
19 | < 500 | COCc1ccc2c(C(=O)N3CCc4[nH]cnc4[C@H]3c3nc4ccccc4s3)c(C#N)nn2c1 [Example 1866, (S)-3-(4-(benzo[d]thiazol-2-yl)-4,5,6,7-tetrahydro-1H-imidazo[4,5-c]pyridine-5-carbonyl)-6-(methoxymethyl)pyrazolo[1,5-a]pyridine-2-carbonitrile]
20 | < 500 | COCCc1ccc2c(C(=O)N3CCc4[nH]cnc4[C@H]3c3nc4ccccc4s3)c(C#N)nn2c1 [Example 1867, (S)-3-(4-(benzo[d]thiazol-2-yl)-4,5,6,7-tetrahydro-1H-imidazo[4,5-c]pyridine-5-carbonyl)-6-(2-methoxyethyl)pyrazolo[1,5-a]pyridine-2-carbonitrile]
21 | 1000 to 5000 | COCCc1ccc2c(C(=O)N3CCc4[nH]cnc4[C@@H]3c3nc4ccccc4s3)c(C#N)nn2c1 [Example 1868, (R)-3-(4-(benzo[d]thiazol-2-yl)-4,5,6,7-tetrahydro-1H-imidazo[4,5-c]pyridine-5-carbonyl)-6-(2-methoxyethyl)pyrazolo[1,5-a]pyridine-2-carbonitrile]
22 | > 5000 | Cn1cc(C(=O)N2CCc3[nH]cnc3[C@@H]2c2nc3ccccc3s2)c(Cl)n1 [Example 1869, (R)-(4-(benzo[d]thiazol-2-yl)-6,7-dihydro-1H-imidazo[4,5-c]pyridin-5(4H)-yl)(3-chloro-1-methyl-1H-pyrazol-4-yl)methanone]
23 | < 500 | Cn1cc(C(=O)N2CCc3[nH]cnc3[C@H]2c2nc3ccccc3s2)c(Cl)n1 [Example 1870]
24 | < 500 | O=C(c1nnc(-c2cnn(CC(F)F)c2)o1)N1CCc2[nH]cnc2[C@H]1c1nc2ccccc2s1 [Example 1871]
25 | 1000 to 5000 | O=C(c1nnc(-c2cnn(CC(F)F)c2)o1)N1CCc2[nH]cnc2[C@@H]1c1nc2ccccc2s1 [Example 1872, (R)-(4-(benzo[d]thiazol-2-yl)-6,7-dihydro-1H-imidazo[4,5-c]pyridin-5(4H)-yl)(5-(1-(2,2-difluoroethyl)-1H-pyrazol-4-yl)-1,3,4-oxadiazol-2-yl)methanone]
26 | < 500 | O=C(c1nnc(-c2ccn(C(F)F)n2)o1)N1CCc2[nH]cnc2[C@H]1c1nc2ccccc2s1 [Example 1873]
27 | 1000 to 5000 | O=C(c1nnc(-c2ccn(C(F)F)n2)o1)N1CCc2[nH]cnc2[C@@H]1c1nc2ccccc2s1 [Example 1874, (R)-(4-(benzo[d]thiazol-2-yl)-6,7-dihydro-1H-imidazo[4,5-c]pyridin-5(4H)-yl)(5-(1-(difluoromethyl)-1H-pyrazol-3-yl)-1,3,4-oxadiazol-2-yl)methanone]
28 | 1000 to 5000 | O=C(c1nnc(-c2ccc(F)cc2F)o1)N1CCc2[nH]cnc2[C@@H]1c1nc2c(F)cccc2s1 [Example 1875, (R)-(5-(2,4-difluorophenyl)-1,3,4-oxadiazol-2-yl)(4-(4-fluorobenzo[d]thiazol-2-yl)-6,7-dihydro-1H-imidazo[4,5-c]pyridin-5(4H)-yl)methanone]
29 | < 500 | O=C(c1nnc(-c2ccc(F)cc2F)o1)N1CCc2[nH]cnc2[C@H]1c1nc2c(F)cccc2s1 [Example 1876, (S)-(5-(2,4-difluorophenyl)-1,3,4-oxadiazol-2-yl)(4-(4-fluorobenzo[d]thiazol-2-yl)-6,7-dihydro-1H-imidazo[4,5-c]pyridin-5(4H)-yl)methanone]
30 | 1000 to 5000 | O=C(c1nnc(-c2ccc(F)c(F)c2)o1)N1CCc2[nH]cnc2[C@@H]1c1nc2c(F)cccc2s1 [Example 1877, (R)-(5-(3,4-difluorophenyl)-1,3,4-oxadiazol-2-yl)(4-(4-fluorobenzo[d]thiazol-2-yl)-6,7-dihydro-1H-imidazo[4,5-c]pyridin-5(4H)-yl)methanone]
31 | < 500 | O=C(c1nnc(-c2ccc(F)c(F)c2)o1)N1CCc2[nH]cnc2[C@H]1c1nc2c(F)cccc2s1 [Example 1878, (S)-(5-(3,4-difluorophenyl)-1,3,4-oxadiazol-2-yl)(4-(4-fluorobenzo[d]thiazol-2-yl)-6,7-dihydro-1H-imidazo[4,5-c]pyridin-5(4H)-yl)methanone]
32 | 1000 to 5000 | Cc1ccc(-c2nnc(C(=O)N3CCc4[nH]cnc4[C@@H]3c3nc4ccccc4s3)o2)nc1 [Example 1879, (R)-(4-(benzo[d]thiazol-2-yl)-6,7-dihydro-1H-imidazo[4,5-c]pyridin-5(4H)-yl)(5-(5-methylpyridin-2-yl)-1,3,4-oxadiazol-2-yl)methanone]
33 | < 500 | Cc1ccc(-c2nnc(C(=O)N3CCc4[nH]cnc4[C@H]3c3nc4ccccc4s3)o2)nc1 [Example 1880]
34 | 1000 to 5000 | O=C(c1nnc(-c2cnn(CC(F)F)c2)o1)N1CCc2[nH]cnc2[C@@H]1c1nc2c(F)cccc2s1 [Example 1881, (R)-(5-(1-(2,2-difluoroethyl)-1H-pyrazol-4-yl)-1,3,4-oxadiazol-2-yl)(4-(4-fluorobenzo[d]thiazol-2-yl)-6,7-dihydro-1H-imidazo[4,5-c]pyridin-5(4H)-yl)methanone]
